This is an account of results in ChEMBL document CHEMBL1151840, “Synthetic oligoribonucleotides containing arabinonucleotides act as agonists of TLR7 and 8” (Bioorg Med Chem Lett, 2009).

Calls of active or inactive are those of the source. The calls are words filed in the database; no cut-off is given here.

For data set [1], the system named is PBMC. As to the kind of experiment: Stimulation of immune response in human PBMC assessed as induction of MIP1beta production at 150 ug/ml after 24 hrs. The class given is functional, cell-based.
Data set [2] is filed under the species Homo sapiens. As to the kind of experiment: Stimulation of immune response in human pDC assessed as induction of IFN-gamma production at 150 ug/ml after 24 hrs. The class given is functional.
Data set [3] deals with PBMC. Description: Stimulation of immune response in human PBMC assessed as induction of IFNalpha production at 150 ug/ml after 24 hrs. The data set is classed as functional, cell-based.
Data set [4] deals with PBMC. As to the kind of experiment: Stimulation of immune response in human PBMC assessed as induction of TNFalpha production at 150 ug/ml after 24 hrs. The class given is functional, cell-based.
Data set [5] relates to PBMC. Description: Stimulation of immune response in human PBMC assessed as induction of RANTES production at 150 ug/ml after 24 hrs. The data set is classed as functional, cell-based.
The subject of data set [6] is PBMC. As to the kind of experiment: Stimulation of immune response in human PBMC assessed as induction of IL10 production at 150 ug/ml after 24 hrs. The data set is classed as functional, cell-based.
The species entered for data set [7] is Homo sapiens. Description: Stimulation of immune response in human pDC assessed as induction of MIP1alpha production at 150 ug/ml after 24 hrs. The data set is classed as functional.
Data set [8] relates to PBMC. Description: Stimulation of immune response in human PBMC assessed as induction of MCP1 production at 150 ug/ml after 24 hrs. The data set is classed as functional, cell-based.
In data set [9] the test system is PBMC. As to the kind of experiment: Stimulation of immune response in human PBMC assessed as induction of MIP1alpha production at 150 ug/ml after 24 hrs. The class given is functional, cell-based.
Data set [10] has as its system Mus musculus. Description: Stimulation of immune response in C57BL/6 mouse assessed as induction of serum IL12 production at 50 mg/kg, sc after 2 hrs by luminex multiplex assay. The data set is classed as functional, organism-based. More on the design: dose 50 mg/kg.
For data set [11], the species on record is Homo sapiens. As to the kind of experiment: Stimulation of immune response in human pDC assessed as induction of IL12 production at 150 ug/ml after 24 hrs. The data set is classed as functional.
For data set [12], the species on record is Homo sapiens. Description: Stimulation of immune response in human pDC assessed as induction of MIP1beta production at 150 ug/ml after 24 hrs. The class given is functional.
The subject of data set [13] is PBMC. As to the kind of experiment: Stimulation of immune response in human PBMC assessed as induction of IFN-gamma production at 150 ug/ml after 24 hrs. The class given is functional, cell-based.
Data set [14] concerns PBMC. Description: Stimulation of immune response in human PBMC assessed as induction of IL8 production at 150 ug/ml after 24 hrs. The class given is functional, cell-based.
The species entered for data set [15] is Homo sapiens. As to the kind of experiment: Stimulation of immune response in human pDC assessed as induction of IFNalpha production at 150 ug/ml after 24 hrs. The class given is functional.
Data set [16] is filed under the species Homo sapiens. As to the kind of experiment: Stimulation of immune response in human pDC assessed as induction of TNFalpha production at 150 ug/ml after 24 hrs. The data set is classed as functional.
The test system of data set [17] is PBMC. As to the kind of experiment: Stimulation of immune response in human PBMC assessed as induction of IL2R level at 150 ug/ml after 24 hrs. The data set is classed as functional, cell-based.
The subject of data set [18] is PBMC. Description: Stimulation of immune response in human PBMC assessed as induction of IL12 production at 150 ug/ml after 24 hrs. The data set is classed as functional, cell-based.
Data set [19] has as its system PBMC. Description: Stimulation of immune response in human PBMC assessed as induction of IL1-beta production at 150 ug/ml after 24 hrs. The data set is classed as functional, cell-based.
For data set [20], the target named is T1, Toll-like receptor 7 (Homo sapiens) (UniProt Q9NYK1).
T1 sequence (whole entry): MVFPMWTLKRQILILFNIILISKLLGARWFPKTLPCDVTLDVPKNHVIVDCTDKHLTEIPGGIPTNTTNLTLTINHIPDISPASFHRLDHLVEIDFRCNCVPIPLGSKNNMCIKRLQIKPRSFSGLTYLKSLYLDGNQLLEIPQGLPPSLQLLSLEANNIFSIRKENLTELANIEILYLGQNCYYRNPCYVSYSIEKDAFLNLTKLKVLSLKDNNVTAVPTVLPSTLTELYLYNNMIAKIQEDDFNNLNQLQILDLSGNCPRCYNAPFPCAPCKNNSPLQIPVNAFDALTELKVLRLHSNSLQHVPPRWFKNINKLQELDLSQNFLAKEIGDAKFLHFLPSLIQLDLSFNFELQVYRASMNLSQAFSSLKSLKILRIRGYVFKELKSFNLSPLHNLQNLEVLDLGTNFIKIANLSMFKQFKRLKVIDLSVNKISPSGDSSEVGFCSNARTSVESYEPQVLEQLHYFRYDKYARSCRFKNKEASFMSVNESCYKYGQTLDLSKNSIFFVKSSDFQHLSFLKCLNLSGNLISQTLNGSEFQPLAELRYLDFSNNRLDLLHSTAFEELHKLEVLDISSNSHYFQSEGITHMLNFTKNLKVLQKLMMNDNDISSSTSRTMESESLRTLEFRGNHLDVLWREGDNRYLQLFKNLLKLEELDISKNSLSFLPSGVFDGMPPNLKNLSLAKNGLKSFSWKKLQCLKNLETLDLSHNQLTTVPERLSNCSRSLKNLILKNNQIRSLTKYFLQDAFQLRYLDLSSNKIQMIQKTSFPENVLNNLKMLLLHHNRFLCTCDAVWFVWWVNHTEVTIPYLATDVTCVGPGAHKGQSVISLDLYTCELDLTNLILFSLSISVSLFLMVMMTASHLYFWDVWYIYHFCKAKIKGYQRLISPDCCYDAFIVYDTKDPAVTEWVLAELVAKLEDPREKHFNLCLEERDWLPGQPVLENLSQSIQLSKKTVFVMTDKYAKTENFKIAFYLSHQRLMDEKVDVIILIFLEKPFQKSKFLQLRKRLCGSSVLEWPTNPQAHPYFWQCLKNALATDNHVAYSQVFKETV
Description: Agonist activity at human TLR7 expressed in HEK293XL cells assessed as NF-kappaB activation after 18 hrs. The data set is classed as functional, cell-based.

The nature of data set [21]: Stability in human serum assessed as full-length compound remaining after 10 mins by anion-exchange HPLC. The data set is classed as ADME, cell-free. As to conditions: read-out: Stability.
Data set [22] concerns the target T2, Toll-like receptor 8 (Homo sapiens) (UniProt Q9NR97).
T2 sequence (whole entry): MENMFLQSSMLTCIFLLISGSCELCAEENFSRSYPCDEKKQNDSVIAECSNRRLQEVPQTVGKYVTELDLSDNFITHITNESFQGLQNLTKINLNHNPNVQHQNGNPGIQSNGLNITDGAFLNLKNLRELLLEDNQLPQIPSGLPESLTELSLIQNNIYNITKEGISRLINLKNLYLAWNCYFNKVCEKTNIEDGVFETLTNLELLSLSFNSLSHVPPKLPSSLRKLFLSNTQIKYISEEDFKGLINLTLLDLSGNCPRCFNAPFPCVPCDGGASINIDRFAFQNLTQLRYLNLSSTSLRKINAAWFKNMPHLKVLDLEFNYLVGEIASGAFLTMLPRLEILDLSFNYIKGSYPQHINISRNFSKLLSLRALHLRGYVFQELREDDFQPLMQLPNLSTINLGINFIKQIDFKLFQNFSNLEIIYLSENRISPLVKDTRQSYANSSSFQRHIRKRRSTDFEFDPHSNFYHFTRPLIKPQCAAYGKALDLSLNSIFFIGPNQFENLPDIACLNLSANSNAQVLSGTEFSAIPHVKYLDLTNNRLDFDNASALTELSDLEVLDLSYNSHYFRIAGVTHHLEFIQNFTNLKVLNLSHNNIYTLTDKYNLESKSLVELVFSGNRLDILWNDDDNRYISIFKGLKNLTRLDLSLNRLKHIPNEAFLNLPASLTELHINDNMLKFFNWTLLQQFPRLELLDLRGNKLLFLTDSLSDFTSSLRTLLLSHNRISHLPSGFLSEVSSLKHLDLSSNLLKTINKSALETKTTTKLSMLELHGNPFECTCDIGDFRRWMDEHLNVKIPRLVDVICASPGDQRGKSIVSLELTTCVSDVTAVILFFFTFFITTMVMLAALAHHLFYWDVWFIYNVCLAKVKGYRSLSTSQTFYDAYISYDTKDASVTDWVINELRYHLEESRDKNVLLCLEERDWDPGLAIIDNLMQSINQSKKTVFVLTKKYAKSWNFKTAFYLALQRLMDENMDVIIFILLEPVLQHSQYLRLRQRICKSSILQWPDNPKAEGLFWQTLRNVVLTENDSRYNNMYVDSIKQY
Description: Agonist activity at human TLR8 expressed in HEK293XL cells assessed as NF-kappaB activation after 18 hrs. The class given is functional, cell-based.

Regarding `Nc1ccn([C@@H]2O[C@H](COP(O)(=S)O[C@H]3[C@@H](O)[C@H](n4cnc5c(=O)[nH]c(N)nc54)O[C@@H]3COP(O)(=S)O[C@H]3[C@@H](O)[C@H](n4ccc(=O)[nH]c4=O)O[C@@H]3CO)[C@@H](OP(O)(=S)OC[C@H]3O[C@@H](n4ccc(=O)[nH]c4=O)[C@H](O)[C@@H]3OP(O)(=S)OC[C@H]3O[C@@H](n4cnc5c(=O)[nH]c(N)nc54)[C@H](O)[C@@H]3OP(O)(=S)OC[C@H]3O[C@@H](n4ccc(N)nc4=O)[C@H](O)[C@@H]3OP(O)(=S)OC[C@H]3O[C@@H](n4ccc(=O)[nH]c4=O)[C@H](O)[C@@H]3OP(O)(=S)OC[C@H]3O[C@@H](n4ccc(=O)[nH]c4=O)[C@H](O)[C@@H]3OP(O)(=S)OC[C@H]3O[C@@H](n4cnc5c(=O)[nH]c(N)nc54)[C@H](O)[C@@H]3OP(O)(=S)OC[C@H]3O[C@@H](n4ccc(=O)[nH]c4=O)[C@H](O)[C@@H]3OP(O)(=S)OC[C@H]3O[C@@H](n4cnc5c(=O)[nH]c(N)nc54)[C@H](O)[C@@H]3OP(O)(=S)OCC(O)COP(O)(=S)O[C@H]3[C@@H](O)[C@H](n4cnc5c(=O)[nH]c(N)nc54)O[C@@H]3COP(O)(=S)O[C@H]3[C@@H](O)[C@H](n4ccc(=O)[nH]c4=O)O[C@@H]3COP(O)(=S)O[C@H]3[C@@H](O)[C@H](n4cnc5c(=O)[nH]c(N)nc54)O[C@@H]3COP(O)(=S)O[C@H]3[C@@H](O)[C@H](n4ccc(=O)[nH]c4=O)O[C@@H]3COP(O)(=S)O[C@H]3[C@@H](O)[C@H](n4ccc(=O)[nH]c4=O)O[C@@H]3COP(O)(=S)O[C@H]3[C@@H](O)[C@H](n4ccc(N)nc4=O)O[C@@H]3COP(O)(=S)O[C@H]3[C@@H](O)[C@H](n4cnc5c(=O)[nH]c(N)nc54)O[C@@H]3COP(O)(=S)O[C@H]3[C@@H](O)[C@H](n4ccc(=O)[nH]c4=O)O[C@@H]3COP(O)(=S)O[C@H]3[C@@H](O)[C@H](n4ccc(N)nc4=O)O[C@@H]3COP(O)(=S)O[C@H]3[C@@H](O)[C@H](n4cnc5c(=O)[nH]c(N)nc54)O[C@@H]3COP(O)(=S)O[C@H]3[C@@H](O)[C@H](n4ccc(=O)[nH]c4=O)O[C@@H]3CO)[C@H]2O)c(=O)n1` (some centres not stated), the outcome in data set [1], in data set [2], in [3], in data set [4], in data set [5] and in data set [6] was Active. Also, the result in [7], in data set [8], in data set [9], in data set [11], in [12] and in data set [13] was Active. Besides, the outcome in data set [14], in [16], in data set [17], in data set [18] and in data set [19] was Active. Also, the result in data set [10], in [15] and in data set [20] was inactive. Moreover, the remaining at 10 min in [21] was 75%. In addition, in data set [22], the Activity result is “Dose-dependent effect”.
